Data on 35 molecules can be found in US20140243292A1, “SUBSITUTED 2-(CHROMAN-6-YLOXYL)-THIAZOLES AND THEIR USE AS PHARMACEUTICALS” (Sanofi, priority 2011, published 2014).

Structures can show the parent of a compound that is named as a salt.

Assay [1] deals with T1, human NCX1 (Homo sapiens, UniProt P32418).
T1 construct: expressed in transfected cells
Description: NCX1 inhibition, reverse mode (Ca2+ influx into cells), FLIPR Fluo-4 assay. It is filed as cell-based. Conditions: inhibition of NCX1 in reverse mode (Ca2+ influx into cells); read-out: NCX1rv IC50. An outline of the steps:
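CHO cells stably expressing human NCX1 were loaded with 2 µM Fluo-4 AM for 80 min at room temperature, then preincubated with compound for 45 min at 16 °C in pH 7.4 HEPES buffer (3.5 mM CaCl2, 2.5 mM probenecid). Reverse-mode Ca2+ influx was triggered by 20 µM final gramicidin and read at 520 nm on FLIPR. IC50 came from % inhibition of max−min fluorescence.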

The target of assay [2] is T1, human NCX1. The assay is described as follows: NCX1 inhibition, forward mode (Ca2+ efflux out of cells), FLIPR calcium assay. Conditions: for IC50: CHO cells stably expressing human NCX1, read-out: NCX1fw IC50; for inhibition at 10 µM: CHO cells stably expressing human NCX1, read-out: Inhibition in % at 10 μM, IC50 value not determined. It is filed as cell-based. The text has this: The sodium/calcium exchanger NCX1 can transport calcium ions and sodium ions through the cell membrane. The transport is an exchange of Ca^2+ and Na^+ in two directions depending on membrane potential and ion gradients. At the first direction, named “forward mode” or “calcium export mode”, Ca^2+ is transported out of the cell and Na^+ is transported into the cell. At the other direction, named “reverse mode” or “calcium import mode”, the transport directions are vice versa. The effect of the compounds of the invention on NCX1 was determined in CHO cells stably expressing human NCX1 (gene symbol SLC8A1; cf. WO 2009/115238). The assay is based on the monitoring of intracellular Ca^2+ concentrations using a calcium-sensitive fluorescence dye which is detected by means of a FLIPR device (Fluorimetric Imaging Plate Reader, Molecular Devices).
The assay is based on the monitoring of intracellular Ca^2+ concentrations using the PBX Calcium Assay Kit from BD (Becton, Dickinson and Company) with calcium indicator dye 51-9000177BKa (BD, 640177). CHO cells expressing NCX1 were loaded with the dye, and after a preincubation period with the test compound, Ionomycin (Calbiochem, 407950) was added. Ionomycin is an ionophor for Ca^2+ ions mediating an increase of intracellular Ca^2+ ions. Consequently, intracellular Ca^2+ ions are exchanged against extracellular Na^+ ions (Ca^2+ efflux, forward mode). The decrease of intracellular Ca^2+ ions was detected by measuring the fluorescence of the calcium indicator dye at a wavelength of 520 nm by a FLIPR device.
Briefly, similarly as for the reverse mode, for the forward mode transport assay 18000 cells per well were seeded into a 96 well microplate (Corning COSTAR 3904) and incubated overnight in culture medium (cf. above). A total volume of 100 μl medium per well was used. For the preparation of the FLIPR assay, the culture medium was removed from the plates and 100 μl of assay buffer (133.8 mM NaCl (Sigma, S5886); 4.7 mM KCl (Sigma, P3911); 1.25 mM MgCl2 (Merck, 1.05833.0250); 3.5 mM CaCl2(Merck, 1.02083.0250); 5 mM glucose (Sigma, G7021); 10 mM Hepes (Sigma, H4034); pH 7.4)) were added to each well in a washing step. Assay buffer was removed, and 100 μl of a solution of the test compound in assay buffer in different concentrations were added into the wells. Further, 100 μl of dye solution (0.09% (v/v) calcium indicator dye, 9.1% (v/v) signal enhancer (from PBX Calcium Assay Kit); in assay buffer) were added into each well. The plates were incubated in the dark at room temperature for 60 min. Meanwhile a 10 μM solution of Ionomycin in assay buffer (additionally containing 0.05% fetal calf serum (cf. above); 4° C.) was prepared and stored in the wells of a 96 well microplate (96 well microplate, polypropylene, U-shape (Greiner Bio-One, 650201)). The fluorescence monitoring was performed at 60 measuring points with measurement intervals of 2 sec. After the fifth measuring point, 50 μl of the Ionomycin solution were added to each well of the assay plate to give a final Ionomycin concentration of 2 μM. For the determination of the IC50 values the minimal fluorescence value was subtracted from the maximal fluorescence value for the fifteenth to fifty-fifth measuring points. The calculation of the IC50 values via the percentage inhibitions of Ca^2+ efflux out of cells (forward mode) effected by the test compound was performed in Biost@t Speed 2.0. “NCX1fw IC50” in Table 2 means the IC50 value for inhibition of NCX1 in forward mode (in μM (micromol/liter)).

The term IC50 denotes the concentration at which inhibition is half-maximal. Regarding `O=C(NCc1nnc2n1CCC2)c1cnc(Oc2ccc3c(c2)CCC(c2ccccc2)O3)s1` (stereo not shown) [Example 2, 2-(2-Phenyl-chroman-6-yloxy)-thiazole-5-carboxylic acid (6,7-dihydro-5H-pyrrolo[2,1-c][1,2,4]triazol-3-ylmethyl)-amide], the IC50 at human NCX1 [1] is 300 nM; at human NCX1 [2], 1900 nM.
Turning to `CC(NC(=O)c1cnc(Oc2ccc3c(c2)CCC(c2cccc(F)c2)O3)s1)c1ccncc1` (stereo not shown) [Example 13, hydrochloride], the IC50 on human NCX1 [1] was determined as 300 nM; on human NCX1 [2], 900 nM.
Take `Cc1c(CNC(=O)c2cnc(Oc3ccc4c(c3)CCC(c3ccccc3)O4)s2)cnn1C` (stereo not shown) [Example 14, 2-(2-Phenyl-chroman-6-yloxy)-thiazole-5-carboxylic acid (1,5-dimethyl-1H-pyrazol-4-ylmethyl)-amide]: the IC50 at human NCX1 [1] was 300 nM; on human NCX1 [2] it was 2200 nM.
Turning to `O=C(NCc1ccncc1)c1cnc(Oc2ccc3c(c2)CCC(c2cccc(F)c2)O3)s1` (stereo not shown) [Example 18, hydrochloride], the IC50 stood at 200 nM at human NCX1 [1] and 600 nM at human NCX1 [2].
Regarding `O=C(NCc1nnc2n1CCC2)c1cnc(Oc2ccc3c(c2)CCC(c2cccc(F)c2)O3)s1` (stereo not shown) [Example 20, hydrochloride], the figures for the IC50 at human NCX1 [1] and at human NCX1 [2] were 200 nM and 1200 nM, respectively.
As usually defined, the inhibition is how much of the control response was suppressed. `O=C(NCc1ccncn1)c1cnc(Oc2ccc3c(c2)CCC(c2ccccc2)O3)s1` (stereo not shown) [Example 32]: the IC50 on human NCX1 [1] amounted to 600 nM. At human NCX1 [2], the inhibition at 10 µM worked out at 27%.
For `O=C(NCc1ccnc(Cl)c1)c1cnc(Oc2ccc3c(c2)CCC(c2ccccc2)O3)s1` (stereo not shown) [Example 39, 2-(2-Phenyl-chroman-6-yloxy)-thiazole-5-carboxylic acid (2-chloro-pyridin-4-ylmethyl)-amide], the IC50 on human NCX1 [1] worked out at 300 nM; at human NCX1 [2], 1200 nM.
In the case of `O=C(NCc1ccno1)c1cnc(Oc2ccc3c(c2)CCC(c2cccnc2)O3)s1` (stereo not shown) [Example 58, hydrochloride], the values for the IC50 at human NCX1 [1] and on human NCX1 [2] were 600 nM and 8300 nM, respectively.
On the same counts, the results for `Cc1nc(Oc2ccc3c(c2)CCC(c2ccccc2)O3)sc1C(=O)NCc1ccncc1` (stereo not shown) [Example 59, hydrochloride] are 100 nM and 200 nM.
On the same counts, the results for `c1ccc(C2CCc3cc(Oc4ncc(CNC5CC5)s4)ccc3O2)cc1` (stereo not shown) [Example 103] are 200 nM and 3100 nM.
Regarding `Cc1nn(C)c(C)c1S(=O)(=O)NCc1cnc(Oc2ccc3c(c2)CCC(c2ccccc2)O3)s1` (stereo not shown) [Example 125, 1,3,5-Trimethyl-1H-pyrazole-4-sulfonic acid [2-(2-phenyl-chroman-6-yloxy)-thiazol-5-ylmethyl]-amide], on human NCX1 [1], the IC50 was determined as 9200 nM. Further, the inhibition at 10 µM at human NCX1 [2] came to 20%.
With `c1ccc(C2CCc3cc(Oc4ncc(CNCc5ccncc5)s4)ccc3O2)cc1` (stereo not shown) [Example 134, [2-(2-Phenyl-chroman-6-yloxy)-thiazol-5-ylmethyl]-pyridin-4-ylmethyl-amine], the 50% inhibitory concentration (IC50) is 200 nM at human NCX1 [1] and 2600 nM on human NCX1 [2].
With `c1ccc(C2CCc3cc(Oc4ncc(CNCc5cn6ccsc6n5)s4)ccc3O2)cc1` (stereo not shown) [Example 158], the IC50 at human NCX1 [1] was 300 nM. For the same molecule, the inhibition at 10 µM at human NCX1 [2] was 46%.
`O=C(NCc1ccncc1)c1sc(Oc2ccc3c(c2)CCC(c2ccccc2)O3)nc1Cl` (stereo not shown) [Example 177, 4-Chloro-2-(2-phenyl-chroman-6-yloxy)-thiazole-5-carboxylic acid (pyridin-4-ylmethyl)-amide hydrochloride]: the half-maximal inhibitory concentration (IC50) came out at 300 nM at human NCX1 [1] and 800 nM on human NCX1 [2].
With `COC(=O)C(C)(C)NC(=O)c1cnc(Oc2ccc3c(c2)CC[C@@H](c2ccccc2)O3)s1` [Example 182], on human NCX1 [1], the IC50 is 600 nM. Besides, at human NCX1 [2], the inhibition at 10 µM amounted to 8%.
On the same counts, the results for `CCOC(=O)[C@@H]1CCCC[C@@H]1NC(=O)c1cnc(Oc2ccc3c(c2)CC[C@@H](c2ccccc2)O3)s1` [Example 189] are 600 nM and 17%.
Regarding `O=C(NC(CCO)C1CC1)c1cnc(Oc2ccc3c(c2)CC[C@@H](c2ccccc2)O3)s1` (stereo partly shown) [Example 206], the half-maximal inhibitory concentration (IC50) at human NCX1 [1] turned out to be 300 nM; on human NCX1 [2], 1600 nM.
As for `O=C(c1cnc(Oc2ccc3c(c2)CC[C@@H](c2ccccc2)O3)s1)N1CCOCC1` [Example 214], the values for the IC50 on human NCX1 [1] and on human NCX1 [2] were 500 nM and 4500 nM, respectively.
On the same counts, the results for `Cc1ccccc1C1CCc2cc(Oc3ncc(C(=O)NCCN4CCNC4=O)s3)ccc2O1` (stereo not shown) [Example 216, 2-(2-o-Tolyl-chroman-6-yloxy)-thiazole-5-carboxylic acid [2-(2-oxo-imidazolidin-1-yl)-ethyl]-amide] are 300 nM and 1900 nM.
Take `O=C(O)C1CN(C(=O)c2cnc(Oc3ccc4c(c3)CC[C@@H](c3ccccc3)O4)s2)CC1C(F)(F)F` (stereo partly shown) [Example 243]: the half-maximal inhibitory concentration (IC50) on human NCX1 [1] was determined as 700 nM. The inhibition at 10 µM on human NCX1 [2] is 19%.
For `O=C(NC1C2CNCC21)c1cnc(Oc2ccc3c(c2)CC[C@@H](c2ccccc2)O3)s1` (stereo partly shown) [Example 255], the IC50 at human NCX1 [1] came to 300 nM; at human NCX1 [2], 600 nM.
Turning to `COC(=O)[C@@H](C)NC(=O)c1cnc(Oc2ccc3c(c2)CCC(c2cccnc2)O3)s1` (stereo partly shown) [Example 275], the IC50 at human NCX1 [1] was 3100 nM; at human NCX1 [2], 9900 nM.
On the same counts, the results for `CCCNC(=O)c1cnc(Oc2ccc3c(c2)CCC(c2ccccc2)O3)s1` (stereo not shown) [Example 321, 2-(2-Phenyl-chroman-6-yloxy)-thiazole-5-carboxylic acid propylamide] are 400 nM and 1500 nM.
For the molecule `Cc1ccc(F)cc1C1CCc2cc(Oc3ncc(C(=O)N4CC[C@@H](O)C4)s3)ccc2O1` (stereo partly shown) [compound 356], the IC50 on human NCX1 [1] is 540 nM.
Same read-out and setting: in the case of `Cc1cc2c(cc1Oc1ncc(C(=O)NCCO)s1)CCC(c1ccccc1C)O2` (stereo not shown) [compound 357] it was 600 nM.
`Cc1cc2c(cc1Oc1ncc(C(=O)NCc3ccno3)s1)CCC(c1ccccc1C)O2` (stereo not shown) [compound 358]: at human NCX1 [1], the IC50 worked out at 830 nM.
On the same count and under the same terms, the figure for `CCn1nccc1CNC(=O)c1cnc(Oc2cc3c(cc2C)OC(c2ccccc2C)CC3)s1` (stereo not shown) [compound 359] is 1500 nM; for `COc1cccc(C2CCc3cc(Oc4ncc(C(=O)NCCO)s4)ccc3O2)c1F` (stereo not shown) [compound 360] it is 1800 nM.
With `COc1cccc(C2CCc3cc(Oc4ncc(C(=O)NCc5ccno5)s4)ccc3O2)c1F` (stereo not shown) [compound 361], on human NCX1 [1], the IC50 is 9600 nM.
For the molecule `CCn1nccc1CNC(=O)c1cnc(Oc2ccc3c(c2)CCC(c2cccc(OC)c2F)O3)s1` (stereo not shown) [compound 362], on human NCX1 [1], the IC50 turned out to be 1500 nM.
Same read-out and setting: the figure for `CC1Cc2cc(Oc3ncc(C(=O)NCc4ccno4)s3)ccc2OC1c1ccccc1` (stereo not shown) [compound 363] is 1900 nM; for `CC1Cc2cc(Oc3ncc(C(=O)NCCO)s3)ccc2OC1c1ccccc1` (stereo not shown) [compound 364] it is 960 nM.
Still for that read-out and setting: in the case of `CCn1nccc1CNC(=O)c1cnc(Oc2ccc3c(c2)CCC(c2cccc(F)c2OC)O3)s1` (stereo not shown) [compound 365] it was 550 nM; in that of `COc1c(F)cccc1C1CCc2cc(Oc3ncc(C(=O)NCc4ccno4)s3)ccc2O1` (stereo not shown) [compound 366], 180 nM; in that of `COc1c(F)cccc1C1CCc2cc(Oc3ncc(C(=O)NCCO)s3)ccc2O1` (stereo not shown) [compound 367], 270 nM.
